Test results as given in patent publication US10799478B2, “Treatment of androgen deprivation therapy associated symptoms” (priority 2014, dated 2020).

What was measured:
[1] = tested on: ORX Wistar male rats; test: In Vivo Study to Explore Direct Antagonist Effect of Example 1 in the Presence of TE; parameters: species or system rat; conditions: for Seminal Vesicle Wet Weights, Abs(Dif) − LSD / Prostate Weights, Abs(Dif) − LSD: vs TE alone; for Prostate Weight, % Sham / SV Weight, % Sham: 8 weeks
Method: Route of administration for all groups except TE is oral. TE is administered subcutaneously. At the end of 8 weeks of daily dosing, rats are euthanized, weighed & tissue harvested. Levator ani, prostates, and seminal vesicles are collected from each animal. Results are plotted as means±SE.

[2] = target: T1, human Androgen receptor (Homo sapiens, UniProt P10275); test: hAR binding affinity (Ki); conditions: comparison with R1881
T1 sequence (P10275 1-920): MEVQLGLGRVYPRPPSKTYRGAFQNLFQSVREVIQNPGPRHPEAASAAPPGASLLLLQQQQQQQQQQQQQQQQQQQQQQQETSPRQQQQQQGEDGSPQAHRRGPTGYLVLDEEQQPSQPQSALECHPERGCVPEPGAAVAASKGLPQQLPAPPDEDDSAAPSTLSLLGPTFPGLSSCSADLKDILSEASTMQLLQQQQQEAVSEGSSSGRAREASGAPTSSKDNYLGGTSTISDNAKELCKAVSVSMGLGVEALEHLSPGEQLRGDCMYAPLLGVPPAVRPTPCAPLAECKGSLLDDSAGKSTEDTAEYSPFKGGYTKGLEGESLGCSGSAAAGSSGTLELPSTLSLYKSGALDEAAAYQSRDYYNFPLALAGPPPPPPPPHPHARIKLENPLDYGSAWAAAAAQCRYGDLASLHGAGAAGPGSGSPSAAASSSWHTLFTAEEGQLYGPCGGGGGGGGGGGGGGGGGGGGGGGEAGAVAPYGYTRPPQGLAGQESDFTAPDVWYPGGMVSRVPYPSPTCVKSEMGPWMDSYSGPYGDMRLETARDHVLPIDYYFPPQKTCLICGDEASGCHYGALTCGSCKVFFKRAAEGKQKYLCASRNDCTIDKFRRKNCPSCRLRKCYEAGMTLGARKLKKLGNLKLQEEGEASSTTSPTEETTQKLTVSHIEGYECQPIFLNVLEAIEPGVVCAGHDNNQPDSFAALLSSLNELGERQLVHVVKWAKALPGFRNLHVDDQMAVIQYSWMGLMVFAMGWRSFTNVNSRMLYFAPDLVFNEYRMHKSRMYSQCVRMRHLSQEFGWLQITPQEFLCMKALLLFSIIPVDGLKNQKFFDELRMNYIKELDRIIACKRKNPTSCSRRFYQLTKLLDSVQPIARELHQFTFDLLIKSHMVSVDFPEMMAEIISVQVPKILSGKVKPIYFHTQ

[3] = in vivo; conditions: both, Sprague-Dawley, rat, in vivo, po
Method: (§1) Vehicle controls (15 rats/sex in main study and 5 rats/sex in recovery study) are given daily oral gavage dose of 5% Vitamin E TPGS, 1% hydroxyethylcellulose, 0.05% Dow Corning Antifoam 1510-US in purified water. Fifteen males and 15 females are assigned to each treatment main study group. Five males and 5 females are assigned to the recovery study for the vehicle control and 150 mg/kg/day groups. […] All administrations are given in a 15 mL/kg volume.

[4] = tested on: Sprague-Dawley rat; test: in vivo; conditions: for Male group mean AUC0-24 hr near termination / Prostate weight (mean % decrease): rats, 6 months
Method: as §1

[5] = tested on: male rats; test: Male Fertility and Toxicokinetic Study in Rats; format: in vivo, rat
Method: The purpose of this study is to determine the potential adverse effects in the reproductive process resulting from treatment of male rats prior to, and during, the mating period. This includes identification of functional reproductive effects in the male.
Male rats (20/group) are treated daily for 10 weeks prior to mating, throughout the 3-week mating period, and continuing through the day prior to euthanasia (for a total of 100 to 101 doses). Female rats are not treated. All animals are observed twice daily for moribundity and mortality. Clinical observations are recorded daily for male rats; body weights and food consumption are recorded for males twice weekly. All males are euthanized 1 day following the last dose administration. Spermatogenic endpoint evaluations conducted on all males include motility and morphology and epididymal sperm concentration. Testes, epididymis, prostate and seminal vesicle/coagulating gland/fluid from all males are weighed and retained. Testes, epididymis, prostate, seminal vesicles and coagulating glands from surviving males are examined microscopically. A laparohysterectomy is performed on Gestation Day 15 for each female with evidence of mating. An additional 3, 18, 18, and 18 males assigned to the toxicokinetic phase are given the compound at doses of 0, 3, 30, and 1000 mg/kg, respectively, and are sampled for toxicokinetic evaluation at appropriate intervals following dose administration on Study Days 0 and 70.

[6] = tested on: beagle dogs; test: Four Week Oral Toxicity Study in Dogs; format: in vivo, dog
Method: […] One additional group of three animals/sex serves as the control and receives the vehicle, 80% PEG 3350/20% Vitamin E TPGS (v/v) via oral capsule. The test article or vehicle is administered to all groups via oral capsule, twice a day for 28 consecutive days, at a dose volume of 1.5 mL/kg/dose.
Observations for mortality, morbidity, injury, and the availability of food and water are conducted twice daily for all animals. Detailed clinical observations are conducted weekly. Body weights are measured and recorded the day after receipt, prior to randomization, and weekly during the study. Food consumption is measured and recorded weekly. Ophthalmoscopic examinations are conducted pretest and prior to the terminal necropsy. Physical examinations are conducted pretest. Neurological examinations are conducted during Weeks 1 and 4. ECG examinations are conducted twice prior to the initiation of dosing and prior to and approximately 2 hours (±15 minutes) after the morning test article administration on Days 3 and 26. […] The toxicokinetic parameters are determined for the test article from concentration-time data in the test species. At study termination, necropsy examinations are performed, organ weights are recorded, and testes, epididymis, and prostates are microscopically examined.

[7] = ORX + TE 1 mg/kg/d + Example 1 3 mg/kg/d po
[8] = ORX + TE 1 mg/kg/d + Example 1 3 mg/kg/d
[9] = ORX + TE 1 mg/kg/d + Example 1 10 mg/kg/d po
[10] = ORX + TE 1 mg/kg/d + Example 1 10 mg/kg/d
[11] = ORX + TE 1 mg/kg/d + Example 1 30 mg/kg/d

CC(C)OC(=O)N[C@H]1Cc2c(n(Cc3ccccn3)c3ccc(C#N)cc23)C1 (single isomer, unassigned) [Example 1]
Seminal Vesicle Wet Weights, Abs(Dif) − LSD ([1]; ORX + Example 1 10 mg/kg/d without TE): 1.411 | Prostate Weight, % Sham [1, 7]: 42.7 % Sham | SV Weight, % Sham [1, 7]: 53.5 % Sham | Prostate Weights, Abs(Dif) − LSD [1, 8]: −0.11 | Seminal Vesicle Wet Weights, Abs(Dif) − LSD [1, 8]: −0.34 | Prostate Weight, % Sham [1, 9]: 30.3 % Sham | SV Weight, % Sham [1, 9]: 42.0 % Sham | Prostate Weights, Abs(Dif) − LSD [1, 10]: 0.036 | Seminal Vesicle Wet Weights, Abs(Dif) − LSD [1, 10]: 0.078 | Prostate Weight, % Sham ([1]; ORX + TE 1 mg/kg/d + Example 1 30 mg/kg/d po): 31.2 % Sham | Prostate Weights, Abs(Dif) − LSD [1, 11]: 0.025 | Seminal Vesicle Wet Weights, Abs(Dif) − LSD [1, 11]: 0.536 | prostate wet weight in mg normalized to body weight ([1]; co-treatment with 1 mg/Kg TE): dose-dependent decrease | seminal vesicle wet weight in mg normalized to body weight, induced by TE alone ([1]; combination with TE 1 mg/Kg-day and various doses of Example 1): trend in decreasing | biochemical binding affinity to the human Androgen receptor [2]: only modestly reduced | NOAEL [3]: < 15 mg/kg/day | morphologic findings in the testes ([4]; all dose levels (15, 150, 1500 mg/kg/day)): considered to be adverse | accumulation after multiple doses ([4]; any dose group up to Day 182): not observed | higher body weight than concurrent controls ([4]; females, end of treatment period): 22% | body weight change compared to control ([4]; males, end of treatment period): −12% | Male group mean AUC0-24 hr near termination ([4]; 15 mg/kg/day): 15902 ng·h/mL | Male group mean AUC0-24 hr near termination ([4]; 150 mg/kg/day): 34132 ng·h/mL | Prostate weight (mean % decrease) ([4]; 150 mg/kg/day): ↓ 30% | Male group mean AUC0-24 hr near termination ([4]; 1500 mg/kg/day): 82690 ng·h/mL | Prostate weight (mean % decrease) ([4]; 1500 mg/kg/day): ↓ 34% | mating, fertility, and copulation indices ([5]; 1000 mg/kg group males): lower | increase of mean exposure (AUC0-24 hr) between 3 and 30 mg/kg ([5]; Day 0): approximately 7.8 fold | increase of mean exposure (AUC0-24 hr) between 3 and 30 mg/kg ([5]; Day 70): ~4.5 fold | Mean body weights, body weight gains, and food consumption ([5]; all dosage levels): unaffected | Intrauterine survival of the embryos ([5]; males dosed 3, 30, 1000 mg/kg): unaffected | increase of exposure with dose ([6]; dogs given 6 and 60 mg/kg/day, plateau at 60 mg/kg/day): less than dose proportional | gender effect on exposure ([6]; male vs female dogs): no gender effect
